Assay results from ChEMBL document CHEMBL1201862, “PubChem BioAssay data set” (2004).
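Compound exposure: 48 hours, 5 concentrations, 96-well plates. GI50 = concentration required for 50% inhibition of growth.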 Active and inactive are the calls of the source. No stated cut-off is given here; in the data, active = GI50 up to about 1.1 µM and inactive = higher.

What was measured:
Test in all cases: inhibition of tumour cell growth, NCI panel, 48 h
HL-60 = test system: HL-60
T47D = test system: T47D
HCT-15 = test system: HCT-15
BT-549 = test system: BT-549
CCRF-CEM = test system: CCRF-CEM
UACC-62 = test system: UACC-62
CAKI-1 = test system: CAKI-1
NCI-H522 = test system: NCI-H522
Hs-578T = test system: Hs-578T
LOX IMVI = test system: LOX IMVI
RXF 393 = test system: RXF 393
UO-31 = test system: UO-31
KM12 = test system: KM12
OVCAR-4 = test system: OVCAR-4
MDA-MB-231 = test system: MDA-MB-231
EKVX = test system: EKVX
SNB-75 = test system: SNB-75
UACC-257 = test system: UACC-257
NCI/ADR-RES = test system: NCI/ADR-RES
SR = test system: SR

Row | SMILES | GI50 (HL-60) | GI50 (T47D) | GI50 (HCT-15) [µM] | GI50 (BT-549) | GI50 (CCRF-CEM) | GI50 (UACC-62) | GI50 (CAKI-1) | GI50 (NCI-H522) | GI50 (Hs-578T) | GI50 (LOX IMVI) | GI50 (RXF 393) | GI50 (UO-31) | GI50 (KM12) | GI50 (OVCAR-4) | GI50 (MDA-MB-231) | GI50 (EKVX) | GI50 (SNB-75) | GI50 (UACC-257) | GI50 (NCI/ADR-RES) | GI50 (SR)
1 | CC1=C(C)C(=O)C(C2=C(C3=CC(=O)C(C)=C(C)C3=O)C(=O)C(C)=C(C)C2=O)=CC1=O | > 100 µM (inactive) | 2.75 µM (inactive) | 0.294 | 10 µM (inactive) | > 100 µM (inactive) | 10.5 µM (inactive) | 3.44 µM (inactive) | 1.95 µM (inactive) | 16.1 µM (inactive) | 2.57 µM (inactive) | 1.83 µM (inactive) | 4.59 µM (inactive) | 8.51 µM (inactive) | 1.79 µM (inactive) | 2.07 µM (inactive) | 20.8 µM (inactive) | 16.6 µM (inactive) | 13.3 µM (inactive) | 1.13 µM (inactive) | 
2 | CC1(C)OC1CC/C(=C/CBr)CBr (stereo not drawn) | 4.92 µM (inactive) |  |  | 16.7 µM (inactive) | 8.17 µM (inactive) |  | 17.9 µM (inactive) | 10.3 µM (inactive) | 17.5 µM (inactive) | 10.2 µM (inactive) | 17 µM (inactive) | 14.4 µM (inactive) | 16 µM (inactive) | 17 µM (inactive) | 15.7 µM (inactive) | 18.1 µM (inactive) | 6.82 µM (inactive) | 14.9 µM (inactive) | 18.8 µM (inactive) | 13.8 µM (inactive)
3 | NC(Cc1ccccc1)C(=O)O (stereo not drawn) [DL-PHENYLALANINE] | > 100 µM (inactive) | > 100 µM (inactive) | > 100 | > 100 µM (inactive) | > 100 µM (inactive) | > 100 µM (inactive) | > 100 µM (inactive) | > 100 µM (inactive) | > 100 µM (inactive) | > 100 µM (inactive) | > 100 µM (inactive) | > 100 µM (inactive) | > 100 µM (inactive) | > 100 µM (inactive) | > 100 µM (inactive) | > 100 µM (inactive) | > 100 µM (inactive) | > 100 µM (inactive) | > 100 µM (inactive) | 
4 | C[C@@H]1CCC[C@]2(C)O[C@H]2CC[C@@](C)(O)[C@@H]2CC3=C(CO)C(=O)O[C@H]3[C@H]1O2 | > 5 µM (inactive) | > 50 µM (inactive) | > 50 | > 50 µM (inactive) | 34.1 µM (inactive) | > 50 µM (inactive) | > 50 µM (inactive) | 28.4 µM (inactive) | > 50 µM (inactive) | > 50 µM (inactive) | > 50 µM (inactive) | > 50 µM (inactive) | > 50 µM (inactive) | > 50 µM (inactive) | > 50 µM (inactive) | > 50 µM (inactive) | > 50 µM (inactive) | > 50 µM (inactive) | > 50 µM (inactive) | 
5 | Nc1nc(N)c(C2=CCN(Cc3ccccc3)CC2)c(=O)[nH]1 | > 100 µM (inactive) | > 100 µM (inactive) | > 100 | > 100 µM (inactive) | > 100 µM (inactive) | > 100 µM (inactive) | > 100 µM (inactive) | > 100 µM (inactive) | > 100 µM (inactive) |  | > 100 µM (inactive) | > 100 µM (inactive) | > 100 µM (inactive) | > 100 µM (inactive) | > 100 µM (inactive) | > 100 µM (inactive) | > 100 µM (inactive) | > 100 µM (inactive) | > 100 µM (inactive) | 
6 | CCC[C@H](C)C[C@H](C)C[C@H](C)/C=C(\C)[C@@H](O)[C@@H](C)C(=O)CC | 17.9 µM (inactive) | 23.6 µM (inactive) | 21 | 23.4 µM (inactive) | 24.3 µM (inactive) | 17.1 µM (inactive) | 22.4 µM (inactive) | 17.6 µM (inactive) | 25 µM (inactive) | 20.4 µM (inactive) | 20.7 µM (inactive) | 23 µM (inactive) | 20.2 µM (inactive) | 19.2 µM (inactive) | 25.3 µM (inactive) | 18.8 µM (inactive) | 49.9 µM (inactive) | 20.1 µM (inactive) | 17 µM (inactive) | 
7 | CO[C@@H]1C[C@H]2N3CC[C@@]2(c2cc4c(cc2C3)OCO4)[C@H]2O[C@@H]12 | > 100 µM (inactive) |  | > 100 | > 100 µM (inactive) | > 100 µM (inactive) | > 100 µM (inactive) | > 100 µM (inactive) | > 100 µM (inactive) | > 100 µM (inactive) | > 100 µM (inactive) | > 100 µM (inactive) | > 100 µM (inactive) | > 100 µM (inactive) | > 100 µM (inactive) | > 100 µM (inactive) | > 100 µM (inactive) | > 100 µM (inactive) | > 100 µM (inactive) | > 100 µM (inactive) | 
8 | OC1=C2c3ccccc3NC2Oc2cc(F)ccc21 (stereo not drawn) |  | 19.2 µM (inactive) | 15.8 | 16 µM (inactive) | 2.22 µM (inactive) | 15.7 µM (inactive) | 19.5 µM (inactive) | 17.7 µM (inactive) | 34.7 µM (inactive) | 16.4 µM (inactive) | 16.6 µM (inactive) | 13.9 µM (inactive) | 15.4 µM (inactive) | 16.6 µM (inactive) | 16.1 µM (inactive) | 3.6 µM (inactive) |  | 19 µM (inactive) | 16.2 µM (inactive) | 
9 | CCC(=O)O[C@H]1CC[C@H]2[C@@H]3CCC4=CC(=O)C=C[C@]4(O)[C@H]3CC[C@]12C | 11.9 µM (inactive) |  | 15 | 20.5 µM (inactive) | 4.09 µM (inactive) | 15.4 µM (inactive) | 24.3 µM (inactive) | 16.7 µM (inactive) | 39.5 µM (inactive) | 16.7 µM (inactive) | 24.5 µM (inactive) | 64.1 µM (inactive) | 18.5 µM (inactive) | 28.3 µM (inactive) | 22.7 µM (inactive) | 25.9 µM (inactive) |  | 3.72 µM (inactive) | 37 µM (inactive) | 2.67 µM (inactive)
10 | CN[C@@H](C)[C@H](OP(=O)(O)OC1[C@@H](O)[C@H](O)C(O)[C@H](O)[C@@H]1O)c1ccccc1 (stereo partly drawn) | > 100 µM (inactive) | > 100 µM (inactive) | > 100 | > 100 µM (inactive) | > 100 µM (inactive) | > 100 µM (inactive) | > 100 µM (inactive) | > 100 µM (inactive) | > 100 µM (inactive) |  |  | > 100 µM (inactive) | > 100 µM (inactive) | > 100 µM (inactive) | > 100 µM (inactive) | > 100 µM (inactive) | > 100 µM (inactive) | > 100 µM (inactive) | > 100 µM (inactive) | 
11 | COc1cc2cc[n+](C)c(Cc3ccc(Oc4cc(Cc5c6cc(OC)c(OC)cc6cc[n+]5C)ccc4OC)cc3)c2cc1OC | 45.2 µM (inactive) | > 100 µM (inactive) | > 100 | > 100 µM (inactive) | > 100 µM (inactive) | > 100 µM (inactive) | > 100 µM (inactive) | > 100 µM (inactive) | > 100 µM (inactive) | 79.8 µM (inactive) | > 100 µM (inactive) | > 100 µM (inactive) | > 100 µM (inactive) | > 100 µM (inactive) | > 100 µM (inactive) | > 100 µM (inactive) | > 100 µM (inactive) | > 100 µM (inactive) |  | > 100 µM (inactive)
12 | N#Cc1c(SCc2ccccc2)nc(-c2ccccc2)[nH]c1=S | 30.6 µM (inactive) | 22.4 µM (inactive) | 19.8 | 20.6 µM (inactive) | 34.3 µM (inactive) | 21.7 µM (inactive) | 33.3 µM (inactive) |  | 32.1 µM (inactive) | 30 µM (inactive) | 19.2 µM (inactive) | 17.8 µM (inactive) | 17.4 µM (inactive) | 30.9 µM (inactive) | 37.4 µM (inactive) | 31.5 µM (inactive) | 19.1 µM (inactive) | 35.2 µM (inactive) | 23.5 µM (inactive) | 
13 | O=C(O)CN1C(=O)C(Cc2ccc(O)cc2)N=C(c2cccc(O)c2)c2ccccc21 (stereo not drawn) | > 100 µM (inactive) | > 100 µM (inactive) | > 100 | > 100 µM (inactive) |  | > 100 µM (inactive) |  | 80.4 µM (inactive) | > 100 µM (inactive) | > 100 µM (inactive) |  | > 100 µM (inactive) | > 100 µM (inactive) | > 100 µM (inactive) | > 100 µM (inactive) | > 100 µM (inactive) | 40 µM (inactive) | > 100 µM (inactive) |  | > 100 µM (inactive)
14 | Nc1nc2[nH]cc(CCc3ccc(C(=O)N[C@@H](CCC(=O)O)C(=O)O)cc3)c2c(=O)[nH]1 [PEMETREXED] | 0.0652 µM (active) | > 100 µM (inactive) | > 100 | > 100 µM (inactive) |  | 0.23 µM (active) | > 100 µM (inactive) | > 100 µM (inactive) | > 100 µM (inactive) | 0.0743 µM (active) | > 100 µM (inactive) |  | > 100 µM (inactive) | > 100 µM (inactive) | 10.3 µM (inactive) | > 100 µM (inactive) | > 100 µM (inactive) | > 100 µM (inactive) |  | > 100 µM (inactive)
15 | COc1ccc(P2(=S)Oc3ccccc3-c3ccccc3O2)cc1 | 0.284 µM (active) | 36.1 µM (inactive) | 0.48 | > 100 µM (inactive) | 0.356 µM (active) | 0.733 µM (active) | 0.271 µM (active) | 0.193 µM (active) | 0.466 µM (active) | 0.661 µM (active) |  | 0.518 µM (active) | 0.499 µM (active) | 4.25 µM (inactive) | 0.439 µM (active) |  | 0.337 µM (active) | 1.35 µM (inactive) | 0.902 µM (active) | 
